Assay results: patent US10548898B2, “Quinazoline compounds” (Gilead Sciences, Inc., priority 2014, dated 2020)
Like-named read-outs stand apart in the source and are kept apart here.

Legend:
Type in all cases: cell-based
[1] = test system: HIV-1 recombinant strain encoding reverse transcriptase mutation Y181C; assay: Resistance profile against HIV-1 RT mutants in MT-2 cells, Y181C; conditions: ratio of mean EC50 mutant/WT virus
Method: (§1) Compounds were tested for antiviral activity against a panel of NNRTI resistant viruses. A panel of 8 clonal site-directed mutant viruses representing the major resistance development pathways against rilpivirine (“RPV”), efavirenz (“EFV”), and nevirapine (“NVP”), containing both single and double mutations within HIV-1 reverse transcriptase was employed. Further details and background can be found in Janssen et al. J. Med. Chem, 2005, 48, 1901-1909; Das et al., Proc. Nat. Acad. Sci., 2008, vol., 105, no. 5, 1466-1471; and Kuroda et al., Nature Chemistry, 2013, DOI: 10.1038/NCHEM. 1559. […] HIV-1 recombinant strains encoding reverse transcriptase mutations K103N, Y181C, Y188L, G190A, K103N/Y181C, L1001/Y181C, E138K or E138KIM 184V were constructed by site-directed mutagenesis. Wild-type and mutant viruses were prepared by transfecting infectious proviral HXB2-based cDNA clones into MT-2 cells and harvesting the cell supernatants. MT-2 cells were infected with wild-type and mutant HIV-1 strains at a multiplicity of infection (MOI) of 0.005 by gentle mixing for 3 hours at 37° C. and then added at a density of 16,667 cells per well in 50 μL complete RPMI cell culture media (containing 10% fetal bovine serum (FBS) and 10% penicillin-streptomycin) to 96-well plates containing 50 μL of a 3-fold serial dilution of test compounds in RPMI medium. After 5 days of incubation at 37° C. in a humidified incubator in the presence of 5% CO2. 100 μL of Cell Titer-Glo™ Reagent (Promega Biosciences, Inc., Madison, Wis.) was added to each well and the relative light units (RLU) measured on an Envision plate reader. […] The EC50 value was defined as the compound concentration inducing a 50% decrease in virus replication. Data analysis for the antiviral activity observed in MT-2 cells was performed using XL-Fit™ software (IDBS, Guildford, Surrey, UK) to calculate EC50 from an 8-point dose-response curve using the following equation:
(§2) [formula] where y=virus inhibition, x=drug concentration, M=maximum inhibition, H=minimum inhibition and n=Hill coefficient, EC50 values (mean±standard deviation) were calculated from at least three independent experiments performed in triplicate. The level of resistance was calculated as a ratio of the mean EC50 for each mutant/WT virus. Results are disclosed in FIG. 1 and in Tables 3 and 4 below.

[2] = test system: HIV-1 recombinant strain encoding reverse transcriptase mutation K103N/Y181C; assay: Resistance profile against HIV-1 RT mutants in MT-2 cells, K103N/Y181C; conditions: ratio of mean EC50 mutant/WT virus
Method: as §1, §2

HIV-1 HBX2 (wild type) = assay: High throughput cytopathic effect assay in MT-4 cells, wild type HIV-1
Source text: (§3) Compounds were screened in a miniaturized, high throughput cytopathic effect assay for activity against HIV-1 HBX2 (wild type) and HIV-1 reverse transcriptase mutants K103N and Y181C. In Tables 1 and 2 below. “w.t.” refers to results of the tested compounds run with the wildtype 1 and “w.t, assay 2” refers results of the tested compounds run with the wildtype on the same day as the testing of the compounds with the mutants. Thus, “w.t, assay 2” was run under the same conditions as the testing of the compounds with the mutants and provides a direct comparison with the results from the testing with the mutants.
(§4) Ten-point serial dilutions of compounds with half-log step size were generated in DMSO. AZT ([…]) was used as the positive control and DMSO as the negative control. The Echo acoustic dispenser was used to deliver 200 nL of serially diluted compound into sterile 384 well tissue culture assay plates. Two million MT-4 cells were incubated with each of the 3 viruses at MOI of 0.0005 in separate 1 mL infection tubes for 1 hour at 37° C. The cells were diluted in cell culture medium (RPMI+10% FBS) to 50.000 cells/mL. The infected cells were added to 384 well assay plates containing serially dilute compounds. Assay plates were incubated for 5 days in a humidified incubator set at 37° C. and 5% CO2. To measure the cytopathic effect of HIV, 40 μL Cell TiterGlo was added to each well and the resulting luminescence signal is read with the Envision plate reader (Perkin Elmer). Data were normalized to positive and negative controls in each plate and expressed as % CPE Protection. EC50 values were defined as the compound concentration that caused a 50% decrease in luminescence signal, and were calculated by non-linear regression using Pipeline Pilot software by applying a four parameter fit equation (Accelrys, San Diego, Calif.).

[3] = test system: HIV-1 reverse transcriptase mutant K103N; assay: High throughput cytopathic effect assay in MT-4 cells, K103N mutant; conditions: for EC50: Human immunodeficiency virus 1, MT4, 120 h, read-out: MT4 EC50 (nM) against K103N; for FC against mutant K103N: fold change of MT4 EC50 versus w.t. assay 2
Source text: as §3, §4

[4] = test system: HIV-1 reverse transcriptase mutant Y181C; assay: High throughput cytopathic effect assay in MT-4 cells, Y181C mutant; conditions: for EC50: Human immunodeficiency virus 1, MT4, 120 h, read-out: MT4 EC50 (nM) against Y181C; for FC against mutant Y181C: fold change of MT4 EC50 versus w.t. assay 2
Source text: as §3, §4

[5] = test system: HIV-1 recombinant strain encoding reverse transcriptase mutation K103N; assay: Resistance profile against HIV-1 RT mutants in MT-2 cells, K103N; conditions: ratio of mean EC50 mutant/WT virus
Method: as §1, §2

[6] = test system: HIV-1 recombinant strain encoding reverse transcriptase mutation Y188L; assay: Resistance profile against HIV-1 RT mutants in MT-2 cells, Y188L; conditions: ratio of mean EC50 mutant/WT virus
Method: as §1, §2

[7] = test system: HIV-1 recombinant strain encoding reverse transcriptase mutation L100I/Y181C; assay: Resistance profile against HIV-1 RT mutants in MT-2 cells, L100I/Y181C; conditions: ratio of mean EC50 mutant/WT virus
Method: as §1, §2

[8] = Human immunodeficiency virus 1, MT4, read-out: MT4 EC50 (nM) against w.t. assay 2
[9] = Human immunodeficiency virus 1, MT4, 120 h, MT-4 cells, 5 days, cytopathic effect, Cell TiterGlo, read-out: MT4 EC50 (nM) against w.t.

SMILES	Biology resistance panel-low throughput fold change (FC) Y181C [1]	Biology resistance panel-low throughput fold change (FC) K103N/Y181C [2]	EC50 (HIV-1 HBX2 (wild type); [8])	EC50 [3]	FC against mutant K103N [3]	EC50 [4]	FC against mutant Y181C [4]	Biology resistance panel-low throughput fold change (FC) K103N [5]	Biology resistance panel-low throughput fold change (FC) Y188L [6]	Biology resistance panel-low throughput fold change (FC) L100I/Y181C [7]	EC50 (HIV-1 HBX2 (wild type); [9])	EC50 (HIV-1 HBX2 (wild type); Human immunodeficiency virus 1, MT4, 120 h, read-out: MT4 EC50 (nM) against w.t.)
COc1cc(Nc2nc(N)c3cccc(-c4c(C)cc(/C=C/C#N)cc4C)c3n2)ccc1C#N [Compound 3, (E)-4-((4-Amino-8-(4-(2-cyanovinyl)-2,6-dimethylphenyl)quinazolin-2-yl)amino)-2-methoxybenzonitrile]	3.4	3.4	12.9 nM	12 nM	0.9	50.2 nM	3.9	1.0	13.7	1.0	–	–
Cc1cc(/C=C/C#N)cc(C)c1-c1cc(F)cc2cnc(Nc3ccc(C#N)cc3)nc12 [Compound 4, (E)-4-((8-(4-(2-Cyanovinyl)-2,6-dimethylphenyl)-6-fluoroquinazolin-2-yl)amino)benzonitrile]	4.9	12.8	9.8 nM	19.1 nM	2.0	47 nM	4.8	1.4	16.9	5.4	9.2 nM	–
Cc1cc(/C=C/C#N)cc(C)c1-c1cccc2c(NC(N)=O)nc(Nc3ccc(C#N)cc3)nc12 [Compound 37, (E)-1-(2-((4-Cyanophenyl)amino)-8-(4-(2-cyanovinyl)-2,6-dimethylphenyl)quinazolin-4-yl)urea]	–	–	6.8 nM	7.8 nM	1.2	22.1 nM	3.3	–	–	–	4.7 nM	–
Cc1cc(/C=C/C#N)cc(C)c1-c1cc(F)cc2cnc(Nc3ccc(C#N)cn3)nc12 [Compound 14, (E)-6-((8-(4-(2-Cyanovinyl)-2,6-dimethylphenyl)-6-fluoroquinazolin-2-yl)amino)nicotinonitrile]	–	–	12.7 nM	15.1 nM	1.2	122 nM	9.6	–	–	–	8.1 nM	–
COc1ccc(-c2c(C)cc(/C=C/C#N)cc2C)c2nc(Nc3ccc(C#N)cc3)nc(N)c12 [Compound 28, (E)-4-((4-Amino-8-(4-(2-cyanovinyl)-2,6-dimethylphenyl)-5-methoxyquinazolin-2-yl)amino)benzonitrile]	–	–	9.1 nM	14.3 nM	1.6	57.2 nM	6.3	–	–	–	11.4 nM	–
Cc1cc(C#N)cnc1Nc1nc(N)c2cccc(-c3c(C)cc(/C=C/C#N)cc3C)c2n1 [Compound 17, (E)-6-((4-Amino-8-(4-(2-cyanovinyl)-2,6-dimethylphenyl)quinazolin-2-yl)amino)-5-methylnicotinonitrile]	–	–	190 nM	151 nM	0.8	> 500 nM	>2.6	–	–	–	229 nM	–
COc1cc(-c2c(C)cc(/C=C/C#N)cc2C)c2nc(Nc3ccc(C#N)cn3)nc(N)c2c1 [Compound 24, (E)-6-((4-Amino-8-(4-(2-cyanovinyl)-2,6-dimethylphenyl)-6-methoxyquinazolin-2-yl)amino)nicotinonitrile]	–	–	27.8 nM	32.5 nM	1.2	478 nM	17.2	–	–	–	–	27.8 nM
Cc1cc(/C=C/C#N)cc(C)c1-c1cc(Cl)cc2c(N)nc(Nc3ccc(C#N)cc3)nc12 [Compound 19, (E)-4-((4-Amino-6-chloro-8-(4-(2-cyanovinyl)-2,6-dimethylphenyl)quinazolin-2-yl)amino)benzonitrile]	–	–	29 nM	30.3 nM	1.0	79.7 nM	2.7	–	–	–	27.5 nM	–
C/C(=C\C#N)c1cc(C)c(-c2cccc3c(N)nc(Nc4ccc(C#N)cc4)nc23)c(C)c1 [Compound 38, (E)-4-((4-Amino-8-(4-(1-cyanoprop-1-en-2-yl)-2,6-dimethylphenyl)quinazolin-2-yl)amino)benzonitrile]	–	–	7.9 nM	7 nM	0.9	18.6 nM	2.4	–	–	–	6 nM	–
N#C/C=C/c1cc(F)c(-c2cccc3cnc(Nc4ccc(C#N)cc4)nc23)c(F)c1 [Compound 5, (E)-4-((8-(4-(2-Cyanovinyl)-2,6-difluorophenyl)quinazolin-2-yl)amino)benzonitrile]	15.4	208.0	1.5 nM	2.5 nM	1.7	12 nM	8.2	1.6	174.0	18.9	1.3 nM	–
Cc1cc(Nc2nc(N)c3cccc(-c4c(C)cc(/C=C/C#N)cc4C)c3n2)nc(C)c1C#N [Compound 15, (E)-6-((4-Amino-8-(4-(2-cyanovinyl)-2,6-dimethylphenyl)quinazolin-2-yl)amino)-2,4-dimethylnicotinonitrile]	–	–	33.2 nM	72.2 nM	2.2	180 nM	5.4	–	–	–	22.6 nM	–
C/C(=C/C#N)c1cc(C)c(-c2cccc3c(N)nc(Nc4ccc(C#N)cc4)nc23)c(C)c1 [Compound 39, (Z)-4-((4-Amino-8-(4-(1-cyanoprop-1-en-2-yl)-2,6-dimethylphenyl)quinazolin-2-yl)amino)benzonitrile]	–	–	8.9 nM	12.1 nM	1.4	27.2 nM	3.0	–	–	–	5.9 nM	–
CNc1nc(Nc2ccc(C#N)cn2)nc2c(-c3c(C)cc(/C=C/C#N)cc3C)cccc12 [Compound 31, (E)-6-((8-(4-(2-Cyanovinyl)-2,6-dimethylphenyl)-4-(methylamino)quinazolin-2-yl)amino)nicotinonitrile]	–	–	8.6 nM	17.6 nM	2.1	432 nM	50.5	–	–	–	10.5 nM	–
